Measurements published in ChEMBL document CHEMBL1139335, “Enaminones 8: CoMFA and CoMSIA studies on some anticonvulsant enaminones” (Bioorg Med Chem, 2009).
Calls of active or inactive are those of the source. The rule behind the calls is not given here.

system: Mus musculus; test: Anticonvulsant activity in mouse assessed as inhibition of pentylenetetrazole-induced seizure at 100 mg/kg; format: functional, organism-based; set-up: dose 100 mg/kg

**Q.** For CCOC(=O)C1C(=O)C=C(Nc2ccc(Cl)cc2)CC1C (stereo not drawn), which Activity is on record?
**A.** Active

**Q.** How did the Activity turn out when NC1=CC(=O)CCC1 was run?
**A.** Active

**Q.** How did the Activity turn out when N#Cc1ccc(C(=O)NC2=CC(=O)CCC2)cc1 was run?
**A.** Active

**Q.** Which Activity does the source give for COc1ccc(C(=O)NC2=CC(=O)CC(C)C2)cc1 (stereo not drawn) here?
**A.** Active

**Q.** COC(=O)C1C(=O)C=C(Nc2ccc(C(F)(F)F)cc2)CC1(C)C (stereo not drawn) was tested. Which Activity did it give?
**A.** Active

**Q.** Which Activity does the source give for CCOC(=O)C1C(=O)C=C(Nc2ccc(C#N)cc2)CC1C (stereo not drawn) here?
**A.** Active

**Q.** For CC1(C)CC(=O)C=C(NC(=O)c2ccc(C#N)cc2)C1, which Activity is on record?
**A.** Active

**Q.** CCOC(=O)C1C(=O)C=C(NC(=O)c2ccc(C)cc2)CC1C (stereo not drawn) was tested. Which Activity did it give?
**A.** Active

system: Mus musculus; test: Anticonvulsant activity in mouse assessed as inhibition of pentylenetetrazole-induced seizure at 100 to 300 mg/kg; format: functional, organism-based

**Q.** How did the Activity turn out when CC(=O)/C=C(\C)Nc1ccc(I)cc1 was run?
**A.** Active

**Q.** For COC(=O)C1C(=O)C=C(Nc2ccc(Br)cc2)CC1C (stereo not drawn), which Activity is on record?
**A.** Active

**Q.** How did the Activity turn out when COC(=O)C1C(=O)C=C(Nc2ccccc2F)CC1C (stereo not drawn) was run?
**A.** Active

**Q.** For CC(=O)/C=C(\C)Nc1ccc(Br)cc1, which Activity is on record?
**A.** Active

**Q.** With CC1CC(=O)C=C(Nc2ccc(F)cc2)C1 (stereo not drawn) as the compound, how does the Activity read?
**A.** Active

**Q.** For CC(=O)/C=C(\C)Nc1ccc(Cl)cc1, which Activity is on record?
**A.** Active

**Q.** How did the Activity turn out when CCOC(=O)C1C(=O)C=C(Nc2ccc(Cl)cn2)CC1C (stereo not drawn) was run?
**A.** Active

**Q.** Which Activity does the source give for COC(=O)C1C(=O)C=C(Nc2ccc(Cl)cc2)CC1(C)C (stereo not drawn) here?
**A.** Active

**Q.** With CCOC(=O)C1C(=O)C=C(Nc2ccc(Cl)c(Cl)c2)CC1C (stereo not drawn) as the compound, how does the Activity read?
**A.** Active

**Q.** For CCOC(=O)C1CCC(Nc2cccc(OC(F)(F)F)c2)=CC1=O (stereo not drawn), which Activity is on record?
**A.** Active

**Q.** COc1ccc(N/C(C)=C/C(C)=O)cc1 was tested. Which Activity did it give?
**A.** Active

**Q.** For CC1CC(=O)C=C(Nc2cccc(Cl)c2)C1 (stereo not drawn), which Activity is on record?
**A.** Active

**Q.** With CCOC(=O)C1C(=O)C=C(Nc2cc(C)ccc2OC)CC1C (stereo not drawn) as the compound, how does the Activity read?
**A.** Active

**Q.** CC1CC(=O)C=C(Nc2ccc(OC(F)(F)F)cc2)C1 (stereo not drawn) was tested. Which Activity did it give?
**A.** Active

**Q.** COC(=O)C1C(=O)C=C(Nc2ccc(F)cc2)CC1C (stereo not drawn) was tested. Which Activity did it give?
**A.** Active

**Q.** COC(=O)C1C(=O)C=C(Nc2ccc(Cl)cn2)CC1C (stereo not drawn) was tested. Which Activity did it give?
**A.** Active

**Q.** With COC(=O)C1C(=O)C=C(Nc2ccc(Cl)c(Cl)c2)CC1C (stereo not drawn) as the compound, how does the Activity read?
**A.** Active

**Q.** Which Activity does the source give for CCOC(=O)C1C(=O)C=C(Nc2ccc(Cl)cc2Cl)CC1C (stereo not drawn) here?
**A.** Active

**Q.** COC(=O)C1C(=O)C=C(Nc2ccc(C(F)(F)F)cc2)CC1C (stereo not drawn) was tested. Which Activity did it give?
**A.** Active

**Q.** For CCc1ccc(N/C(C)=C/C(C)=O)cc1, which Activity is on record?
**A.** Active

**Q.** CC1CC(=O)C=C(Nc2ccc(Cl)cc2)C1 (stereo not drawn) was tested. Which Activity did it give?
**A.** Active

**Q.** Which Activity does the source give for CC1CC(=O)C=C(Nc2cccc(Br)c2)C1 (stereo not drawn) here?
**A.** Active

**Q.** CCOC(=O)C1C(=O)C=C(Nc2ccc(F)cc2)CC1C (stereo not drawn) was tested. Which Activity did it give?
**A.** Active

**Q.** Which Activity does the source give for CCOC(=O)C1C(=O)C2=C(CC1C)Nc1ccc(Cl)cc1S2 (stereo not drawn) here?
**A.** Active

**Q.** COC(=O)C1C(=O)C=C(Nc2ccc(OC(F)(F)F)cc2)CC1C (stereo not drawn) was tested. Which Activity did it give?
**A.** Active
